Reference: patent publication US6410585B1, “Inhibitors of protein tyrosine phosphatase” (priority 1997, dated 2002)
“And” between values parts separate entries of the source, which are not always exact repeats. Identical values can stand only once.

Target: T1, human PTP1B (Homo sapiens, UniProt P18031)
T1 construct: human PTP1B (amino acid residues 1-321); made in house; host or cells: E. coli BL21(DE3)
T1 sequence (P18031 1-321): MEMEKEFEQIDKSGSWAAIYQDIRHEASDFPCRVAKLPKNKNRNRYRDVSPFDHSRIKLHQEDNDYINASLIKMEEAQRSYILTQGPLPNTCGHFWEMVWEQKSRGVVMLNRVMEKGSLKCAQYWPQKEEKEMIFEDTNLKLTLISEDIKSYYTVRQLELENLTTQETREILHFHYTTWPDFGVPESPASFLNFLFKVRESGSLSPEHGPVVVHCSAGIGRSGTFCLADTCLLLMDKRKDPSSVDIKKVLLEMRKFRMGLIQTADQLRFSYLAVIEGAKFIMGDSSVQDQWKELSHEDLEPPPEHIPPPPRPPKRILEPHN
Assay: PTP1B assay, pNPP hydrolysis, assayed exactly as for PTP1
Type: biochemical
Conditions: for inhibition at 1 µM / inhibition at 10 µM / inhibition at 100 µM: Table 2, read-out: PTP1B Inhib PTP1B. % Inhib; for PTP1B Inhib PTP1B. % Inhib: Table 2
Text: The equivalent construct of human PTP1B (amino acid residues 1-321) (cloned from a human placental library), without the GST tag and thrombin cleavage site, was inserted into a pMB replicon and transformed into E. coli BL21(DE3), a strain containing a chromosomal copy of the gene for T7 RNA polymerase under control of a lacUV5 promoter. Expression of PTP1B was induced with isopropyl thiogalactose and the soluble protein was purified by ion exchange, hydrophobic interaction and gel exclusion chromatography for use in the assay to identify PTP inhibitors.
PTP1 activity is measured using either p-nitrophenol phosphate (pNPP) or a triphosphopeptide (that matches residues 1142 through 1153 of the β-subunit and the insulin receptor) as substrate in a 96-well microtiter plate format. An assay pH of 7.2 is used for standard assays (measured 405=9800 at pH 7.2).
Human PTP1B, which is highly homologous to rat PTP1, was assayed exactly as described above for PTP1.
Standard assays are conducted at room temperature in a total volume of 0.2 ml that contains Hepes buffer (50 mM, pH 7.2), NaCl (50 mM), EDTA (1 mM), DTT (1 mM), bovine serum albumin (1 mg/ml), pNPP (1 mM) and PTP1 (35 ng/ml). Compounds (2 μl of 10 mM solutions) are pipetted into wells of microtiter plates followed by 198 μl of premixed reaction mix (with PTP1 and pNPP added immediately before use). The rate of change in A405 is recorded for 60 min. Two wells on each plate contain DMSO controls and two wells contain sodium orthovanadate (1 mM) which inhibits PTP1-catalyzed hydrolysis of pNPP completely. Data are expressed as percent inhibition relative to the average of the DMSO controls measured on the same microtiter plate.

CCCCCNC(=O)[C@H](Cc1ccc(OC(F)C(=O)O)c(C(=O)O)c1)NC(=O)[C@H](Cc1ccccc1)NC(=O)OC(C)(C)C (some centres unmarked)
inhibition at 1 µM (Conc 1 uM): 34% | inhibition at 10 µM (Conc 10 uM): 76% | inhibition at 100 µM (Conc 100 uM): 95%

CCCCCNC(=O)C(Cc1ccc(OC(COO)COO)cc1)NC(=O)C(Cc1ccccc1)NC(=O)CCOC (centres unmarked)
inhibition at 1 µM (Conc 1 uM): 19% | inhibition at 10 µM (Conc 10 uM): 65% | inhibition at 100 µM (Conc 100 uM): 94%

CCCCCNC(=O)C(Cc1ccc(OCCOO)c(COO)c1)NC(=O)C(Cc1ccccc1)NC(=O)Cc1cccc(O)c1 (centres unmarked)
inhibition at 1 µM (Conc 1 uM): 43% | inhibition at 10 µM (Conc 10 uM): 86% | inhibition at 100 µM (Conc 100 uM): 98%

CCCCCNC(=O)C(Cc1ccc(OC(COO)COO)cc1)NC(=O)C(CC(C)C)NC(=O)OC(C)(C)C (centres unmarked)
inhibition at 1 µM (Conc 1 uM): 4% | inhibition at 10 µM (Conc 10 uM): 24% | inhibition at 100 µM (Conc 100 uM): 76%

CCCCCNC(=O)C(Cc1ccc(OC(COO)COO)cc1)NC(=O)C(CC[S+](C)[O-])NC(=O)OC(C)(C)C (centres unmarked)
inhibition at 1 µM (Conc 1 uM): 7% | inhibition at 10 µM (Conc 10 uM): 21% | inhibition at 100 µM (Conc 100 uM): 67%

CCCCCNC(=O)C(Cc1ccc(OCCOO)c(COO)c1)NC(=O)C(Cc1ccccc1)NC(=O)CCNC(=O)OC(C)(C)C (centres unmarked)
inhibition at 1 µM (Conc 1 uM): 19% | inhibition at 10 µM (Conc 10 uM): 75% | inhibition at 100 µM (Conc 100 uM): 96%

CCCCCNC(=O)C(Cc1ccc(OC(COO)COO)cc1)NC(=O)C(CCSC)NC(=O)OC(C)(C)C (centres unmarked)
inhibition at 1 µM (Conc 1 uM): 5% | PTP1B Inhib PTP1B. % Inhib (Conc 10 uM): 30% | inhibition at 10 µM (Conc 10 uM): 25% | PTP1B Inhib PTP1B. % Inhib (Conc 100 uM): 82% | inhibition at 100 µM (Conc 100 uM): 74%

CCCCCNC(=O)C(Cc1ccc(OCCOO)c(COO)c1)NC(=O)C(Cc1ccccc1)NC(=O)Cc1ccccc1 (centres unmarked)
inhibition at 1 µM (Conc 1 uM): 45% | inhibition at 10 µM (Conc 10 uM): 87% | inhibition at 100 µM (Conc 100 uM): 98%

CCCCCNC(=O)C(Cc1ccc(OC(COO)COO)cc1)NC(=O)CNC(=O)OCc1ccccc1 (centres unmarked)
inhibition at 1 µM (Conc 1 uM): 6% | inhibition at 10 µM (Conc 10 uM): 19% | inhibition at 100 µM (Conc 100 uM): 66%

CC(C)(C)OC(=O)N[C@@H](Cc1ccccc1)C(=O)N[C@@H](Cc1ccc(OCC(=O)O)c(C(=O)O)c1)C(=O)NCCCCc1ccccc1 [drawing 221]
inhibition at 1 µM (Conc 1 uM): 64% | inhibition at 10 µM (Conc 10 uM): 93% | inhibition at 100 µM (Conc 100 uM): 98%

CCCCCNC(=O)C(Cc1ccc(OC(COO)COO)cc1)NC(=O)C(Cc1ccc2ccccc2c1)NC(=O)OC(C)(C)C (centres unmarked)
PTP1B Inhib PTP1B. % Inhib (Conc 1 uM): 1% and 3% | inhibition at 10 µM (Conc 10 uM): 29% | PTP1B Inhib PTP1B. % Inhib (Conc 100 uM): 90% | inhibition at 100 µM (Conc 100 uM): 93%

CCCCCNC(=O)C(Cc1ccc(OC(COO)COO)cc1)NC(=O)C(CCCCNC(=O)OCc1ccccc1)NC(=O)OC(C)(C)C (centres unmarked)
inhibition at 1 µM (Conc 1 uM): 6% | inhibition at 10 µM (Conc 10 uM): 28% | inhibition at 100 µM (Conc 100 uM): 79%

CCCCCNC(=O)C(Cc1ccc(OCCOO)c(COO)c1)NC(=O)C(Cc1ccccc1)NC(=O)Cc1ccc(C(F)(F)F)cc1 (centres unmarked)
inhibition at 1 µM (Conc 1 uM): 39% | inhibition at 10 µM (Conc 10 uM): 85% | inhibition at 100 µM (Conc 100 uM): 98%

CCCCCNC(=O)C(Cc1ccc(OCCOO)c(COO)c1)NC(=O)N(Cc1ccccc1)Cc1ccccc1 (centres unmarked)
inhibition at 1 µM (Conc 1 uM): 11% | inhibition at 10 µM (Conc 10 uM): 45% | inhibition at 100 µM (Conc 100 uM): 87%

CCCCCNC(=O)[C@H](Cc1ccc(N(CC(=O)O)CC(=O)O)cc1)NC(=O)[C@H](Cc1ccccc1)NC(=O)OC(C)(C)C
inhibition at 1 µM (Conc 1 uM): 3% | inhibition at 10 µM (Conc 10 uM): 6% | inhibition at 100 µM (Conc 100 uM): 29%

CCCCCNC(=O)C(Cc1ccc(OC(COO)COO)cc1)NC(=O)N(Cc1ccccc1)Cc1ccccc1 (centres unmarked)
PTP1B Inhib PTP1B. % Inhib (Conc 1 uM): 14% | inhibition at 1 µM (Conc 1 uM): 18% | PTP1B Inhib PTP1B. % Inhib (Conc 10 uM): 59% | inhibition at 10 µM (Conc 10 uM): 65% | PTP1B Inhib PTP1B. % Inhib (Conc 100 uM): 93% | inhibition at 100 µM (Conc 100 uM): 95%

CCCCCNC(=O)C(Cc1ccc(OCCOO)c(COO)c1)NC(=O)C(Cc1ccccc1)NC(=O)CCCO (centres unmarked)
inhibition at 1 µM (Conc 1 uM): 23% | inhibition at 10 µM (Conc 10 uM): 78% | inhibition at 100 µM (Conc 100 uM): 96%

CCCCCNC(=O)C(Cc1ccc(OC(COO)COO)cc1)NC(=O)C(Cc1ccccc1)NC(=O)NC(C)(C)C (centres unmarked)
inhibition at 1 µM (Conc 1 uM): 9% | inhibition at 10 µM (Conc 10 uM): 40% | inhibition at 100 µM (Conc 100 uM): 86%

CCCCCNC(=O)[C@H](Cc1ccc(OC(C(=O)O)C(=O)O)cc1)NC(=O)C(Cc1ccccc1)NC(=O)OC(C)(C)C (some centres unmarked)
inhibition at 1 µM (Conc 1 uM): 2% | inhibition at 10 µM (Conc 10 uM): 8% | inhibition at 100 µM (Conc 100 uM): 44%

CCCCCNC(=O)C(Cc1ccc(OC(COO)COO)cc1)NC(=O)C(Cc1ccccc1)NS(=O)OC (centres unmarked)
inhibition at 1 µM (Conc 1 uM): 9% | inhibition at 10 µM (Conc 10 uM): 40% | inhibition at 100 µM (Conc 100 uM): 86%

CCCCCNC(=O)C(Cc1ccc(OC(COO)COO)cc1)NC(=O)C(Cc1ccccc1)NC(=O)CCNC(=O)OC(C)(C)C (centres unmarked)
inhibition at 1 µM (Conc 1 uM): 14% | inhibition at 10 µM (Conc 10 uM): 62% | inhibition at 100 µM (Conc 100 uM): 93%

CCCCCNC(=O)[C@H](Cc1ccc(OCC(=O)O)c(C(=O)NO)c1)NC(=O)[C@H](Cc1ccccc1)NC(=O)OC(C)(C)C
inhibition at 1 µM (Conc 1 uM): 5% | inhibition at 10 µM (Conc 10 uM): 13% | inhibition at 100 µM (Conc 100 uM): 54%

CCCCCNC(=O)C(Cc1ccc(OC(COO)COO)cc1)NC(=O)N1CCN(C(=O)OC(C)(C)C)CC1 (centres unmarked)
inhibition at 1 µM (Conc 1 uM): 19% | PTP1B Inhib PTP1B. % Inhib (Conc 10 uM): 63% | inhibition at 10 µM (Conc 10 uM): 68% | PTP1B Inhib PTP1B. % Inhib (Conc 100 uM): 92% | inhibition at 100 µM (Conc 100 uM): 95%

CCCCCNC(=O)[C@H](Cc1ccc(OCC(=O)O)c(C(=O)O)c1)NC(=O)C(Cc1ccccc1)NC(=O)CSc1nnc[nH]1 (some centres unmarked)
inhibition at 1 µM (Conc 1 uM): 36% | inhibition at 10 µM (Conc 10 uM): 82% | inhibition at 100 µM (Conc 100 uM): 96%

CCCCCNC(=O)C(Cc1ccc(OC(COO)COO)cc1)NC(=O)C(CC(N)=O)NC(=O)OC(C)(C)C (centres unmarked)
inhibition at 1 µM (Conc 1 uM): 9% | inhibition at 10 µM (Conc 10 uM): 40% | inhibition at 100 µM (Conc 100 uM): 85%

CCCCCNC(=O)C(Cc1ccc(OCCOO)c(COO)c1)NC(=O)C(Cc1ccccc1)NC(=O)CCCc1ccccc1 (centres unmarked)
inhibition at 1 µM (Conc 1 uM): 19% | inhibition at 10 µM (Conc 10 uM): 70% | inhibition at 100 µM (Conc 100 uM): 96%

CCCCCNC(=O)[C@H](Cc1ccc(OCC(=O)OC)c(C(=O)O)c1)NC(=O)[C@H](Cc1ccccc1)NC(=O)OC(C)(C)C
inhibition at 1 µM (Conc 1 uM): 3% | inhibition at 10 µM (Conc 10 uM): 5% | inhibition at 100 µM (Conc 100 uM): 25%

CCCCCNC(=O)C(Cc1ccc(OC(COO)C(=O)O)cc1)C(=O)NCCC(=O)O (centres unmarked)
inhibition at 1 µM (Conc 1 uM): 9% | inhibition at 10 µM (Conc 10 uM): 15% | inhibition at 100 µM (Conc 100 uM): 48%

CCCCCNC(=O)C(Cc1ccc(OCCOO)c(COO)c1)NC(=O)CCc1ccccc1 (centres unmarked)
inhibition at 1 µM (Conc 1 uM): 4% | inhibition at 10 µM (Conc 10 uM): 15% | inhibition at 100 µM (Conc 100 uM): 60%

CCCCCNC(=O)C(Cc1ccc(OCCOO)c(COO)c1)NC(=O)C(Cc1ccccc1)NC(C)=O (centres unmarked)
inhibition at 1 µM (Conc 1 uM): 28% | inhibition at 10 µM (Conc 10 uM): 77% | inhibition at 100 µM (Conc 100 uM): 96%

CCCCCNC(=O)[C@H](Cc1ccc(OCC(=O)O)c(C(=O)O)c1)NC(=O)C(Cc1ccccc1)NC(=O)CSc1cnn[nH]1 (some centres unmarked)
inhibition at 1 µM (Conc 1 uM): 49% | inhibition at 10 µM (Conc 10 uM): 88% | inhibition at 100 µM (Conc 100 uM): 98%

CCCCCNC(=O)C(Cc1ccc(OCCOO)c(COO)c1)NC(=O)C(Cc1ccccc1)NC(=O)Cc1c[nH]c2ccccc12 (centres unmarked)
inhibition at 1 µM (Conc 1 uM): 47% | inhibition at 10 µM (Conc 10 uM): 88% | inhibition at 100 µM (Conc 100 uM): 98%

CCCCCNC(=O)C(Cc1ccc(OCCOO)c(COO)c1)NC(=O)C(Cc1ccccc1)NC(=O)CCOC (centres unmarked)
inhibition at 1 µM (Conc 1 uM): 37% | inhibition at 10 µM (Conc 10 uM): 83% | inhibition at 100 µM (Conc 100 uM): 97%

CCCCCNC(=O)C(Cc1ccc(OCCOO)c(COO)c1)NC(=O)C(C)NC(=O)OC(C)(C)C (centres unmarked)
inhibition at 1 µM (Conc 1 uM): 8% | inhibition at 10 µM (Conc 10 uM): 43% | inhibition at 100 µM (Conc 100 uM): 86%

CCCCCNC(=O)C(Cc1ccc(OC(COO)COO)cc1)NC(=O)C(Cc1c(F)c(F)c(F)c(F)c1F)NC(=O)OC(C)(C)C (centres unmarked)
inhibition at 1 µM (Conc 1 uM): 5% | inhibition at 10 µM (Conc 10 uM): 25% | inhibition at 100 µM (Conc 100 uM): 80%
